Consider 15 compounds from US11576911B2, “Composition and method for treatment of depression and psychosis in humans” (Glytech LLC, priority 2012, dated 2023).

For this assay, the system named is Male C57Bl/6J mice. The experiment in a line: Elevated plus maze (EPM), DOI 2 mg/kg in all conditions. The conditions noted are these: for Effect on distance travelled in open arm / % time in open arm of EPM, in words: agent alone vs control, doses of Tables 1 and 2; for Effect on open arm behavior in the EPM, in words: non-competitive NMDAR antagonist with MDL100907 .3 mg/kg (Table 1 lines 8,9); for Total distance travelled in the EPM, in words: with MDL100907 .3 mg/kg (Table 1 lines 8,9); for DTO Mean / PCT Mean: Table 2; for Reversal of 5-HT2A antagonist induced reductions in open arm measures of the EPM, in words: NMDAR antagonists, summary of Example 1; for Mean distance travelled in the open arm of the EPM: Table 6, DOI 2 mg/kg added; for Distance travelled in the open arm relative to the vehicle, in words: Table 6 doses, DOI 2 mg/kg added in all conditions. The format is in vivo.

Consider `CNC1(c2ccccc2Cl)CCCCC1=O` (racemic) [ketamine, (R,S)-2-(2-Chlorphenyl)-2-(methylamino)cyclohexan-1-on], for which the “Effect on distance travelled in open arm / % time in open arm of EPM, in words” value is on record as “does not significantly alter either distance traveled in the open arm or % time in the open arm”; the “Effect on open arm behavior in the EPM, in words” value was “did not significantly affect open arm behavior”; the “Total distance travelled in the EPM, in words” value is “reduced total distance travelled”. Further, for the setting “Table 1, 10 mg/kg ip alone”, the “Distance Traveled Open (DTO) Mean” value is listed as 194.5 and the “Percent open (PCT) Mean” value is 40.3%.

As to `O=C1CCc2ccc(OCCCCN3CCN(c4cccc(Cl)c4Cl)CC3)cc2N1` [Aripiprazole], the “Effect on distance travelled in open arm / % time in open arm of EPM, in words” value is reported as “significantly decreased distance travelled in the open arm, but not % of time in the open arm”. Moreover, under “1 mg/kg alone”, the “DTO Mean” value came out at 113.9 and the “PCT Mean” value was 34.9%.

Consider `C[C@@H]([C@@H](O)c1ccc(O)cc1)N1CCC(O)(c2ccccc2)CC1` [CP101606], for which the “Reversal of 5-HT2A antagonist induced reductions in open arm measures of the EPM, in words” value was “Pro-therapeutic effects”.

Take `CN(C)C(=O)N[C@H]1CC[C@H](CCN2CCN(c3cccc(Cl)c3Cl)CC2)CC1` [Cariprazine]: the “Mean distance travelled in the open arm of the EPM” value (“Mean distance travelled” for short) is given as 186.00 (0.03 mg/kg), 174.30 (0.1 mg/kg) and 69.70 (1 mg/kg).

`N#Cc1c[nH]c2c(C(=O)N3CCN(CCc4ccc(F)cc4)CC3)cccc12` [EMD281014]: the “Mean distance travelled” value by setting is: (1 mg/kg) 111.00; (3 mg/kg) 42.70; (10 mg/kg) 44.80.

For the compound `CNCCC(Oc1ccc(C(F)(F)F)cc1)c1ccccc1` (stereo not drawn) [Fluoxetine], the “Distance travelled in the open arm relative to the vehicle, in words” value is “no significant effects”. Also, the “Mean distance travelled” value (10 mg/kg) was determined as 216.70.

As for `CN(C)CCCN1c2ccccc2CCc2ccccc21` [Imipramine], the “Distance travelled in the open arm relative to the vehicle, in words” value is listed as “no significant effects”. For the setting “10 mg/kg”, the “Mean distance travelled” value is 235.00.

`CCN(CC)C(=O)[C@@]1(c2ccccc2)C[C@H]1CN` [Levomilnacipran]: the “Distance travelled in the open arm relative to the vehicle, in words” value is “no significant effects”. For the same compound, the “Mean distance travelled” value (40 mg/kg) is on record as 237.90.

For the compound `c1ccc(C2(N3CCCCC3)CCCCC2)cc1` [PCP], the “Reversal of 5-HT2A antagonist induced reductions in open arm measures of the EPM, in words” value was “worsened performance relative to DCS”; the “Effect on open arm behavior in the EPM, in words” value is “did not significantly affect open arm behavior”; the “Total distance travelled in the EPM, in words” value is “reduced total distance travelled”.

With `CC(C)COc1ccc(CNC(=O)N(Cc2ccc(F)cc2)C2CCN(C)CC2)cc1` [Pimavanserin], the “Distance travelled in the open arm relative to the vehicle, in words” value is “significantly reduced”. Also, for the setting “0.3 mg/kg”, the “Mean distance travelled” value worked out at 150.20. Moreover, the “Mean distance travelled” value (1 mg/kg) is given as 204.10. For the same compound, the “Mean distance travelled” value (10 mg/kg) amounted to 66.50.

`OCCOCCN1CCN(C2=Nc3ccccc3Sc3ccccc32)CC1` [Quetiapine]: where the note is “30 mg/kg alone”, the “DTO Mean” value came to 42.8 and the “PCT Mean” value is listed as 9.0%.

In the case of `Cc1nc2n(c(=O)c1CCN1CCC(c3noc4cc(F)ccc34)CC1)CCCC2` [Risperidone], where the note is “1 mg/kg alone”, the “DTO Mean” value was 0.0 and the “PCT Mean” value was 0.0%. Moreover, the “Mean distance travelled” value (1 mg/kg) turned out to be 5.30.

Consider `CN(C)CCO/N=C(/C=C/c1ccc(O)cc1)c1ccccc1F` [SR46349B], for which the “Mean distance travelled” value runs as follows: (0.3 mg/kg) 127.10; (1 mg/kg) 98.00; (10 mg/kg) 105.90.

Consider `COc1ccc(C(CN(C)C)C2(O)CCCCC2)cc1` (stereo not drawn) [Venflaxine], for which, where the note is “40 mg/kg”, the “Mean distance travelled” value is recorded as 224.60.

For the compound `Cc1ccc(Sc2ccccc2N2CCNCC2)c(C)c1` [Vortioxetine], the “Distance travelled in the open arm relative to the vehicle, in words” value is “no significant effects”. Also, under “10 mg/kg”, the “Mean distance travelled” value is recorded as 237.90.
